{"source": "paper PMC5537066", "about": "“Dimerization facilitates the conformational transitions for bacterial phosphotransferase enzyme I autophosphorylation in an allosteric manner” (FEBS Open Bio, 2017)", "test_in_all_cases": "isothermal titration calorimetry", "type_in_all_cases": "binding", "details_in_all_cases": "read-out: K D (μS)", "key": {"EIC (EIC(G356S))": {"biological_target": "T1, EIC (EIC(G356S)) (Escherichia coli, UniProt P08839, G356S)", "T1 construct": "gene ptsI; pET11 or pET15b with N-terminal His6 tag; E. coli BL21star(DE3)"}, "EI (EIA, EIA(G356S))": {"biological_target": "T2, EI (EIA, EIA(G356S)) (Escherichia coli, UniProt P08839, G356S/H189A)", "T2 construct": "gene ptsI; full length 1-575; pET11 or pET15b with N-terminal His6 tag; E. coli BL21star(DE3); dimer with PEP", "description": "isothermal titration calorimetry on EI (EIA, EIA(G356S))"}, "EIA^ΔEINα (G356S)": {"biological_target": "T3, EIA^ΔEINα (G356S) (Escherichia coli, UniProt P08839, DEL22-145/G356S/H189A)", "T3 construct": "gene ptsI; EI(1-21, 146-575), EINalpha subdomain deleted; pET11 or pET15b with N-terminal His6 tag; E. coli BL21star(DE3)", "description": "isothermal titration calorimetry on EIA^ΔEINα (G356S)"}}}
{"smiles": "C=C(OP(=O)(O)O)C(=O)O", "note": "[PEP]", "values": [{"measurement": "Kd", "setting": "EIC (EIC(G356S))", "result": "310 ± 100", "unit": "µM"}, {"measurement": "Kd", "setting": "EI (EIA, EIA(G356S))", "result": "14 ± 0.9", "unit": "µM"}, {"measurement": "Kd", "setting": "EIA^ΔEINα (G356S)", "result": "1.3 ± 0.1", "unit": "µM"}]}
